Like-named read-outs stand apart in the source and are kept apart here. Where only a bound is given, the exact number is not on record here.

From patent publication US20250236619A1, “FUSED BICYCLIC COMPOUND CONTAINING PYRROLINONE” (CHIA TAI TIANQING PHARMACEUTICAL GROUP CO., LTD., priority 2022, published 2025) come the findings set out here.

Assay [1] concerns p-SLP76 phosphorylation of Jurkat cells. The assay can be described thus: Assay for inhibitory activity against p-SLP76 phosphorylation of Jurkat cells. The assay is classed as cell-based. To be noted: stimulator CD3CD28, 30 min, read-out: IC50 (nM) for inhibition of p-SLP76 phosphorylation of Jurkat cells. The method, then: 2.1 Assay for Inhibitory Activity Against p-SLP76 Phosphorylation of Jurkat Cells
Jurkat cells in a good growth state were added to a centrifuge tube, centrifuged, and resuspended. The cell density was adjusted to 6.25×10^6 cells/mL, and the cells were seeded in a 384-well small-volume white plate at […]. Different compounds dissolved in DMSO were added to the wells using a nanoliter pipettor to obtain final concentrations of the compounds of 2500 nM to 10.29 nM, and a control was set; the wells were set in duplicate. After 1 h of cell culture, the stimulator CD3CD28 (manufacturer: stemcell, 4 μL) was added and the cells were incubated at 37° C. for 30 min. 3 μL of lysis buffer (manufacturer: BioAuxilium) was added to each well, and the plate was shaken at room temperature for 30 min. After the lysate was well mixed, 5 μL of pre-mixed antibody (manufacturer: BioAuxilium) in assay buffer was added and the plate was incubated overnight at room temperature. The signal values were measured on a PerkinElmer Envision multimode microplate reader (excitation: 320 nm, emission: 615 nm/665 nm), and IC50 was calculated by four-parameter filling.

Another assay deals with HPK1 kinase (Homo sapiens (Human), UniProt Q92918). The assay can be described thus: Assay for in vitro inhibitory activity against HPK1 kinase. The assay is classed as biochemical. As to conditions: HPK1 1 ng/μL, ATP 1 mM, STK Substrate 1-biotin 500 nM. The method, then:
Experimental Example 1: Assay for In Vitro Inhibitory Activity Against HPK1 Kinase A kinase buffer (Enzymatic buffer 5×) was diluted to 1×, and 10 mM MgCl2, 1 mM DTT, and 0.005% Tween 20 were added. A 100 ng/μL HPK1 (Life technology) stock solution was diluted with the kinase buffer to obtain a 1.67×, 1.67 ng/μL working solution (final concentration: 1 ng/μL), and the working solution was seeded in a 384-well plate at 6 μL/well. Different compounds dissolved in DMSO were added to the wells using a nanoliter pipettor to obtain final concentrations of the compounds of 1000 nM to 0.244 nM (4-fold serial dilution, 7 concentrations in total), and blank control wells (without enzyme) and negative control wells (with enzyme, plus vehicle DMSO) were set; the wells were set in duplicate. After the enzyme and the compounds were incubated at room temperature for 1 h, a 5×, 5 mM ATP dilution (final concentration: 1 mM) in the kinase buffer was mixed with a 5×, […] substrate (Cisbio, STK Substrate 1-biotin; final concentration: 500 nM) in equal volume, and the mixture was added to the plate at 4 µL/well. The plate was sealed with a film and then incubated at room temperature for 2 h. An assay antibody solution was prepared by mixing the antibody STK Antibody-cryptate (Cisbio, 5 μL/test) and a 4×, 500 nM Streptavidin-XL665 (Cisbio; final concentration: 125 nM) in equal volume and added to the plate at 10 μL/well. The plate was incubated at room temperature for 1 h. The signal values (excitation: […]) were measured using a PE Envision multimode microplate reader, and IC50 was calculated by four-parameter fitting.

Sequence of HPK1 kinase (Q92918 whole entry): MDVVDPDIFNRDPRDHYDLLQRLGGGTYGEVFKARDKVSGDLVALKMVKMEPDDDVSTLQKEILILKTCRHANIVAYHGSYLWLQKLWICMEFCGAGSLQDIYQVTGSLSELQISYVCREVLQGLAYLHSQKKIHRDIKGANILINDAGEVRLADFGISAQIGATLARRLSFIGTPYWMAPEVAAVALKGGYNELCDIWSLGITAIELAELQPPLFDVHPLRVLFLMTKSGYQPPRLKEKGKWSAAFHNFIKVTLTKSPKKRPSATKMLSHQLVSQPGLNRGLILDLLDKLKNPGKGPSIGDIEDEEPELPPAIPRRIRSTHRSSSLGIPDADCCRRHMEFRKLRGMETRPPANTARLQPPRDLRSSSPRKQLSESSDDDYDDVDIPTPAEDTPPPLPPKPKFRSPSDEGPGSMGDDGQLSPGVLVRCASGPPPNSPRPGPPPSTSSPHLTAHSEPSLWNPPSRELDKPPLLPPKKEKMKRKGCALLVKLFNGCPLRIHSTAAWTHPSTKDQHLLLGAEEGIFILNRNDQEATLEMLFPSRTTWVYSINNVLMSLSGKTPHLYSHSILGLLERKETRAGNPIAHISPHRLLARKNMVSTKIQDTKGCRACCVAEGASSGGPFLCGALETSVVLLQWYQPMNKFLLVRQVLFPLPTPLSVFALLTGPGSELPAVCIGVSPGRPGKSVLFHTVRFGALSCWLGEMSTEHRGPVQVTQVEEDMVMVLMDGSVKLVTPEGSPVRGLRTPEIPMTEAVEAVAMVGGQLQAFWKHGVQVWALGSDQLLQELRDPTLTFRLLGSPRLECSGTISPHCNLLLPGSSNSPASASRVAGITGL

With `CN(C)Cc1nc(Nc2ccc(-c3cnn4ccc5occc5c34)c3c2C(=O)NC3)ccc1C1CCN(C)C(=O)C1` (stereo not shown) [Compound I-60], the IC50 was less than 50 nM in assay [1] (Homo sapiens, 0.5 h) and 2.8 nM against HPK1 kinase.

On to `CN(C)Cc1nc(Nc2ccc(-c3cnc4cnc5occc5n34)c3c2C(=O)NC3)ccc1[C@H]1CCN(C)C(=O)C1` [Compound I-69], for which the 50% inhibitory concentration (IC50) in assay [1] is less than 50 nM; against HPK1 kinase it was 3.7 nM.

As for `CN(C)Cc1nc(Nc2ccc(-c3cnc4ccc5occc5n34)c3c2C(=O)NC3)ccc1[C@H]1CCN(C)C(=O)C1` [Compound I-72], the IC50 in assay [1] is less than 50 nM; at HPK1 kinase it was 3.7 nM.

Consider `CN(C)Cc1nc(Nc2ccc(-c3cnc4ccc5occc5n34)c3c2C(=O)NC3)ccc1[C@@H]1CCN(C)C(=O)C1` [Compound I-73], for which the IC50 in assay [1] was less than 50 nM; at HPK1 kinase it was 2.9 nM.

As for `CN(C)Cc1nc(Nc2ccc(-c3cnn4c3CC3(CC3)C4)c3c2C(=O)NC3)ccc1N1CCN(C)C(=O)C1` [Compound I-75], the results for the concentration for half-maximal inhibition (IC50) (in assay [1]; at HPK1 kinase) were 50 to 100 nM and 3.4 nM, respectively.

With `CN(C)Cc1nc(Nc2ccc(-c3cnc4ccc5occc5n34)c3c2C(=O)NC3)ccc1-c1ccn(C)c(=O)c1` [Compound I-77], the figures for the 50% inhibitory concentration (IC50) (in assay [1]; on HPK1 kinase) were less than 50 nM and 2.9 nM, respectively.

Take `CN(C)Cc1nc(Nc2ccc(-c3cnn4c3CC3(CC3)C4)c3c2C(=O)NC3)ccc1C1CCN(C)CC1` [Compound I-78]: the concentration for half-maximal inhibition (IC50) in assay [1] was 50 to 100 nM; against HPK1 kinase it was 2.3 nM.

On to `CN(C)Cc1nc(Nc2ccc(-c3cnn4c3CC3(CC4)CC3)c3c2C(=O)NC3)ccc1[C@@H]1CCN(C)C(=O)C1` [I-71], for which the IC50 is less than 50 nM in assay [1] and 3.6 nM against HPK1 kinase.
